Test results published in PubChem BioAssay AID330 (DTP/NCI, 2004).
Values joined by “and” are separate entries in the source; they are usually repeats but may differ in a detail not shown here. Identical values can stand only once. Toxic doses and inconclusive results are not listed. Rule for the calls: active = survival T/C of 150% or more; inactive = T/C below 125% in these data.

Tested on: P388 leukemia ip, CD2F1 mice, survival T/C
Test: NCI In Vivo Anticancer Drug Screen. Data for tumor model P388 Leukemia (intraperitoneal) in CD2F1 (CDF1) mice
Conditions: endpoint: median survival time, higher = longer survival
How it was run: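 Mice carrying the transplanted tumor received test compound or vehicle. Survival was recorded in each group, and the value is the treated-group measurement divided by that of the vehicle-treated control group.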

[1] = dose: 50.0 mg/kg/injection, schedule: Q01DX009 (ip), vehicle: suspension in saline
[2] = dose: 100.0 mg/kg/injection, schedule: Q01DX009 (ip), vehicle: suspension in saline
[3] = dose: 50.0 mg/kg/injection, schedule: Q01DX009 (ip), vehicle: saline with Tween-80
[4] = dose: 100.0 mg/kg/injection, schedule: Q01DX009 (ip), vehicle: saline with Tween-80
[5] = dose: 200.0 mg/kg/injection, schedule: Q01DX009 (ip), vehicle: saline with Tween-80
[6] = dose: 50.0 mg/kg/injection, schedule: Q01DX005 (ip), vehicle: Klucel (hydroxypropylcellulose) (HPC)
[7] = dose: 100.0 mg/kg/injection, schedule: Q01DX005 (ip), vehicle: Klucel (hydroxypropylcellulose) (HPC)
[8] = dose: 200.0 mg/kg/injection, schedule: Q01DX005 (ip), vehicle: Klucel (hydroxypropylcellulose) (HPC)
[9] = dose: 60.0 mg/kg/injection, schedule: Q01DX005 (ip), vehicle: saline with Tween-80
[10] = dose: 120.0 mg/kg/injection, schedule: Q01DX005 (ip), vehicle: saline with Tween-80

Measured: T/C

NC(=O)CC1OC(=O)Cc2cc3c(c(O)c21)C(=O)c1c(O)cccc1C3=O (stereo unspecified)
inactive: dose: 0.75 mg/kg/injection, schedule: Q01DX009 (ip), vehicle: DMSO 109 % of control | dose: 1.5 mg/kg/injection, schedule: Q01DX009 (ip), vehicle: DMSO 107 % of control | dose: 3.0 mg/kg/injection, schedule: Q01DX009 (ip), vehicle: DMSO 107 % of control | dose: 6.0 mg/kg/injection, schedule: Q01DX009 (ip), vehicle: DMSO 107 % of control

Cc1ccc(O)c(N=Nc2c(O)cc(S(=O)(=O)O)c3ccccc23)c1
inactive: [1] 100 % of control | [2] 95 % of control

Cc1cc(NC(=O)NCCOc2ccc(N3C(N)=NC(N)=NC3(C)C)cc2Cl)ccc1S(=O)(=O)F
inactive: dose: 12.5 mg/kg/injection, schedule: Q04DX003 (ip), vehicle: saline sonified 100 % of control | dose: 25.0 mg/kg/injection, schedule: Q04DX003 (ip), vehicle: saline sonified 100 % of control | dose: 50.0 mg/kg/injection, schedule: Q04DX003 (ip), vehicle: saline sonified 100 % of control

CC(C)(C)N1CCC1C(=O)O (stereo unspecified)
inactive: [3] 92 % of control | [4] 94 % of control | [5] 88 % of control | dose: 400.0 mg/kg/injection, schedule: Q01DX009 (ip), vehicle: saline with Tween-80 87 % of control

CN(C)[C@@H]1C(=O)C(C(=O)NCN2CCN(C(=N)N=C(N)N)CC2)=C(O)[C@@]2(O)C(=O)C3=C(O)c4c(O)cccc4[C@@](C)(O)[C@H]3C[C@@H]12
inactive: dose: 1.8 mg/kg/injection, schedule: Q01DX005 (ip), vehicle: saline 111 % of control | dose: 3.0 mg/kg/injection, schedule: Q01DX005 (ip), vehicle: saline 117 % of control | dose: 10.0 mg/kg/injection, schedule: Q01DX005 (ip), vehicle: saline 89 % of control
active: dose: 8.33 mg/kg/injection, schedule: Q01DX005 (ip), vehicle: saline 154 % of control

CN(C)C(=O)Nc1cccc(OC(=O)Nc2ccccc2)c1
inactive: dose: 25.0 mg/kg/injection, schedule: Q04DX003 (ip), vehicle: saline with Tween-80 101 % of control | dose: 50.0 mg/kg/injection, schedule: Q04DX003 (ip), vehicle: saline with Tween-80 101 % of control | dose: 100.0 mg/kg/injection, schedule: Q04DX003 (ip), vehicle: saline with Tween-80 90 % of control

CC1=N/C(=C\c2ccccc2O)C(=O)O1
inactive: [6] 104 % of control | [7] 98 % of control | [8] 98 % of control

COc1ccc2c(c1[N+](=O)[O-])CCCCC2=O
inactive: dose: 100.0 mg/kg/injection, schedule: Q01DX009 (sc), vehicle: olive oil, sesame oil, peanut oil 104 % of control | dose: 200.0 mg/kg/injection, schedule: Q01DX009 (sc), vehicle: olive oil, sesame oil, peanut oil 95 % of control | dose: 400.0 mg/kg/injection, schedule: Q01DX009 (sc), vehicle: olive oil, sesame oil, peanut oil 107 % of control

CCOc1ccc(-c2nn(C(=O)c3ccccc3)c(-c3ccccc3)c2N=Nc2ccc(S(=O)(=O)Nc3nnc(C)s3)cc2)cc1
inactive: dose: 100.0 mg/kg/injection, schedule: Q04DX002 (ip), vehicle: saline with Tween-80 93 % of control | dose: 200.0 mg/kg/injection, schedule: Q04DX002 (ip), vehicle: saline with Tween-80 89 % of control | dose: 400.0 mg/kg/injection, schedule: Q04DX002 (ip), vehicle: saline with Tween-80 93 % of control

Nc1nnc2nc(CC(=O)c3cccc([N+](=O)[O-])c3Cl)c(=O)[nH]n12
inactive: dose: 15.0 mg/kg/injection, schedule: Q01DX005 (ip), vehicle: saline with Tween-80 106 % of control | dose: 30.0 mg/kg/injection, schedule: Q01DX005 (ip), vehicle: saline with Tween-80 98 % of control | [9] 100 % of control and 103 % of control

CNC(=O)c1ccccc1CC1(O)CCCc2ccccc21 (stereo unspecified)
inactive: [3] 101 % of control | [4] 96 % of control | [5] 96 % of control

COc1cc(O)c(/C=N\O)c(OC)c1
inactive: [9] 96 % of control | [10] 98 % of control | dose: 240.0 mg/kg/injection, schedule: Q01DX005 (ip), vehicle: saline with Tween-80 98 % of control

OCc1c(-c2ccc(Cl)cc2)c(-c2ccccc2)c2n1CCC2
inactive: [6] 94 % of control | [7] 91 % of control | [8] 92 % of control

CCCCCCCN(CCCCCCC)CC(O)c1cc2ccc(Cl)cc2nc1-c1ccc(Cl)cc1 (stereo unspecified)
inactive: dose: 100.0 mg/kg/injection, schedule: Q01DX001 (ip), vehicle: saline sonified 90 % of control | dose: 200.0 mg/kg/injection, schedule: Q01DX001 (ip), vehicle: saline sonified 90 % of control | dose: 400.0 mg/kg/injection, schedule: Q01DX001 (ip), vehicle: saline sonified 104 % of control

CCCCCC(O)(CCCCC)CCCCC
inactive: dose: 60.0 mg/kg/injection, schedule: Q01DX005 (ip), vehicle: saline 101 % of control | dose: 120.0 mg/kg/injection, schedule: Q01DX005 (ip), vehicle: saline 101 % of control | dose: 240.0 mg/kg/injection, schedule: Q01DX005 (ip), vehicle: saline 92 % of control

Fc1ccc(CSC(=S)Nc2ccc(Br)cc2)cc1
inactive: [1] 100 % of control | [2] 108 % of control | dose: 200.0 mg/kg/injection, schedule: Q01DX009 (ip), vehicle: suspension in saline 101 % of control

CN(C)CC(C)(CN(C)C)C(=O)/C=C/c1c(Cl)cccc1Cl
inactive: [9] 115 % of control | [10] 120 % of control

Cc1c[nH]c(=O)[nH]c1=O
inactive: dose: 32.0 mg/kg/injection, schedule: Q01DX009 (ip), vehicle: Klucel (hydroxypropylcellulose) (HPC) 99 % of control and 107 % of control | dose: 32.0 mg/kg/injection, schedule: Q01DX009 (ip), vehicle: saline with Tween-80 116 % of control | dose: 64.0 mg/kg/injection, schedule: Q01DX009 (ip), vehicle: Klucel (hydroxypropylcellulose) (HPC) 99 % of control and 102 % of control | dose: 64.0 mg/kg/injection, schedule: Q01DX009 (ip), vehicle: saline with Tween-80 106 % of control | dose: 128.0 mg/kg/injection, schedule: Q01DX009 (ip), vehicle: Klucel (hydroxypropylcellulose) (HPC) 100 % of control and 107 % of control | dose: 128.0 mg/kg/injection, schedule: Q01DX009 (ip), vehicle: saline with Tween-80 111 % of control | dose: 170.0 mg/kg/injection, schedule: Q04DX003 (ip), vehicle: saline with Tween-80 100 % of control | dose: 170.0 mg/kg/injection, schedule: Q## X003 (ip), vehicle: saline with Tween-80 100 % of control | dose: 256.0 mg/kg/injection, schedule: Q01DX009 (ip), vehicle: Klucel (hydroxypropylcellulose) (HPC) 100 % of control and 112 % of control | dose: 260.0 mg/kg/injection, schedule: Q04DX003 (ip), vehicle: saline with Tween-80 94 % of control | dose: 260.0 mg/kg/injection, schedule: Q## X003 (ip), vehicle: saline with Tween-80 94 % of control | dose: 390.0 mg/kg/injection, schedule: Q04DX003 (ip), vehicle: saline with Tween-80 95 % of control and 98 % of control | dose: 390.0 mg/kg/injection, schedule: Q## X003 (ip), vehicle: saline with Tween-80 95 % of control and 98 % of control | dose: 512.0 mg/kg/injection, schedule: Q01DX009 (ip), vehicle: Klucel (hydroxypropylcellulose) (HPC) 106 % of control and 93 % of control | dose: 512.0 mg/kg/injection, schedule: Q01DX009 (ip), vehicle: saline with Tween-80 98 % of control | dose: 520.0 mg/kg/injection, schedule: Q04DX003 (ip), vehicle: saline with Tween-80 95 % of control and 98 % of control | dose: 520.0 mg/kg/injection, schedule: Q## X003 (ip), vehicle: saline with Tween-80 95 % of control and 98 % of control

N#Cc1c(C(=O)NN)c2c(-c3ccccc3)n[nH]c(=O)c2[nH]c1=O
inactive: dose: 100.0 mg/kg/injection, schedule: Q01DX001 (ip), vehicle: saline with Tween-80 100 % of control | dose: 200.0 mg/kg/injection, schedule: Q01DX001 (ip), vehicle: saline with Tween-80 91 % of control

COc1cc(C2=[N+](C)CCc3cc4c(cc32)OCO4)cc(OC)c1OC
inactive: [6] 99 % of control | [7] 103 % of control

CCCC[Si](O)(CCCC)CCCC
inactive: dose: 50.0 mg/kg/injection, schedule: Q01DX009 (ip), vehicle: saline 100 % of control | dose: 100.0 mg/kg/injection, schedule: Q01DX009 (ip), vehicle: saline 102 % of control | dose: 200.0 mg/kg/injection, schedule: Q01DX009 (ip), vehicle: saline 100 % of control
